Experiments:
[1] = CV (cyclic voltammetry) measurement in dichloromethane; assay type: physicochemical; conditions: n-BuN4PF6 0.1 M, Pt electrodes, silver-silver chloride reference, 100 mV/sec
Experimental: CV measurement was conducted by using dichloromethane as solvent, tetrabutylammonium hexafluorophosphate (n-BuN4PF6, 0.1 M) as a supporting electrolyte, platinum wires as working electrodes and counter electrodes, and a silver-silver chloride electrodes as reference electrodes, and by sweeping the electric potential at a rate of 100 mV/sec. In all Compounds 101, 110, 112, 136, 201, 210, 212, 214, and 236, two pairs of oxidation-reduction waves were observed.

[2] = Solubility measurement in chloroform (saturated solution); assay type: physicochemical; conditions: mass percent concentration of saturated chloroform solution
Experimental: Solubility was measured by using chloroform as solvent.

SMILES | first half-wave reduction potential [1] [V] | second half-wave reduction potential [1] [V] | Solubility in chloroform [2] [w/w %]
CCCCCCCCc1cc2c(=C(C#N)C#N)cc3c(cc(=C(C#N)C#N)c4cc(CCCCCCCC)sc43)c2s1 [Compound 110] | 0.06 | −0.28 | 0.52
CCCCCCCCCCCCc1cc2c(=C(C#N)C#N)cc3c(cc(=C(C#N)C#N)c4cc(CCCCCCCCCCCC)sc43)c2s1 [Compound 112] | 0.06 | −0.28 | 0.22
CC(C)[Si](c1cc2c(=C(C#N)C#N)cc3c(cc(=C(C#N)C#N)c4cc([Si](C(C)C)(C(C)C)C(C)C)sc43)c2s1)(C(C)C)C(C)C [Compound 136] | 0.06 | −0.28 | –
N#CC(C#N)=c1cc2c3ccsc3c(=C(C#N)C#N)cc2c2ccsc12 [Compound 201] | 0.06 | −0.28 | –
CCCCCCCCc1cc2c(s1)c(=C(C#N)C#N)cc1c3cc(CCCCCCCC)sc3c(=C(C#N)C#N)cc21 [Compound 210] | 0.06 | −0.28 | –
CCCCCCCCCCCCc1cc2c(s1)c(=C(C#N)C#N)cc1c3cc(CCCCCCCCCCCC)sc3c(=C(C#N)C#N)cc21 [Compound 212] | 0.06 | −0.28 | –
CCCCCCCCCCCCCCCCc1cc2c(s1)c(=C(C#N)C#N)cc1c3cc(CCCCCCCCCCCCCCCC)sc3c(=C(C#N)C#N)cc21 [Compound 214] | 0.06 | −0.28 | –

Source: patent US9564604B2, “Fused polycyclic aromatic compounds, organic semiconductor material and thin film including the same, and method for producing an organic semiconductor device” (Nippon Kayaku Kabushiki Kaisha, priority 2012, dated 2017)
